Assay results from ChEMBL document CHEMBL1201862, “PubChem BioAssay data set” (2004).
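Tested at 5 concentrations; 48 h exposure; 96-well plates; endpoints linearly interpolated, else capped at highest concentration. The concentration for 50% growth inhibition is given as GI50.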 Active and inactive are the calls of the source. No stated cut-off is given here; in the data, active = GI50 up to about 1.1 µM and inactive = higher.

Assays:
Assay in all cases: NCI anticancer screen, dose series, 48 h
SK-MEL-5 = tested on: SK-MEL-5
CAKI-1 = tested on: CAKI-1
NCI-H460 = tested on: NCI-H460
UACC-62 = tested on: UACC-62
UACC-257 = tested on: UACC-257
OVCAR-4 = tested on: OVCAR-4
OVCAR-5 = tested on: OVCAR-5
SK-MEL-2 = tested on: SK-MEL-2
SN12C = tested on: SN12C
RXF 393 = tested on: RXF 393
SK-OV-3 = tested on: SK-OV-3
SK-MEL-28 = tested on: SK-MEL-28
NCI-H522 = tested on: NCI-H522
HL-60 = tested on: HL-60
IGROV-1 = tested on: IGROV-1
KM12 = tested on: KM12
SF-268 = tested on: SF-268
Malme-3M = tested on: Malme-3M
SW-620 = tested on: SW-620
COLO 205 = tested on: COLO 205

Measured: GI50

COc1cc2c(oc(=O)c3c4occc4cc(OC)c23)c2cccc(OCc3ccccc3)c12
inactive: SK-MEL-5 > 100 µM | CAKI-1 > 100 µM | NCI-H460 44.9 µM | UACC-62 86.1 µM | UACC-257 > 100 µM | OVCAR-4 44.4 µM | OVCAR-5 > 100 µM | SK-MEL-2 > 100 µM | SN12C > 100 µM | RXF 393 78.3 µM | SK-OV-3 > 100 µM | SK-MEL-28 49.4 µM | NCI-H522 > 100 µM | HL-60 65.8 µM | IGROV-1 > 100 µM | KM12 > 100 µM | SF-268 > 100 µM | Malme-3M 35.6 µM | SW-620 > 100 µM | COLO 205 > 100 µM

CSC1=C(C)C(/C=N/Nc2ccc([N+](=O)[O-])cc2)=C(C)N(c2ccccc2)S1(=O)=O
inactive: SK-MEL-5 17.4 µM | CAKI-1 > 100 µM | NCI-H460 16.6 µM | UACC-62 74.1 µM | UACC-257 > 100 µM | OVCAR-4 > 100 µM | OVCAR-5 > 100 µM | SK-MEL-2 > 100 µM | SN12C > 100 µM | RXF 393 > 100 µM | SK-OV-3 > 100 µM | SK-MEL-28 > 100 µM | NCI-H522 12.9 µM | HL-60 1.28 µM | IGROV-1 28.2 µM | KM12 26.5 µM | SF-268 > 100 µM | Malme-3M 94.2 µM | SW-620 > 100 µM | COLO 205 48.2 µM

CCC1(c2ccccc2)C(=O)N=C(c2ccccc2)N1CCc1ccccc1 (configuration not stated)
inactive: SK-MEL-5 > 100 µM | CAKI-1 > 100 µM | UACC-62 > 100 µM | UACC-257 > 100 µM | OVCAR-4 > 100 µM | OVCAR-5 > 100 µM | SK-MEL-2 > 100 µM | SN12C > 100 µM | RXF 393 > 100 µM | SK-OV-3 > 100 µM | SK-MEL-28 > 100 µM | NCI-H522 > 100 µM | HL-60 > 100 µM | IGROV-1 > 100 µM | KM12 > 100 µM | SF-268 > 100 µM | Malme-3M > 100 µM | SW-620 > 100 µM | COLO 205 > 100 µM

CCOC(=O)C(NC(=O)Nc1ccccc1)(Nc1cccc(Cl)c1)C(F)(F)F (configuration not stated)
inactive: SK-MEL-5 > 100 µM | NCI-H460 > 100 µM | UACC-62 > 100 µM | UACC-257 > 100 µM | OVCAR-5 > 100 µM | SK-MEL-2 > 100 µM | SN12C > 100 µM | RXF 393 20.7 µM | SK-OV-3 > 100 µM | SK-MEL-28 > 100 µM | NCI-H522 92.9 µM | HL-60 42 µM | IGROV-1 > 100 µM | KM12 > 100 µM | SF-268 > 100 µM | Malme-3M > 100 µM | SW-620 > 100 µM | COLO 205 > 100 µM

CN(C)c1ccc(N2C(=S)SC(=N\c3ccccc3)/C2=N/c2ccccc2)cc1
inactive: SK-MEL-5 > 100 µM | CAKI-1 > 100 µM | NCI-H460 > 100 µM | UACC-62 > 100 µM | OVCAR-4 > 100 µM | OVCAR-5 > 100 µM | SK-MEL-2 > 100 µM | SN12C > 100 µM | RXF 393 3.43 µM | SK-OV-3 > 100 µM | SK-MEL-28 > 100 µM | NCI-H522 > 100 µM | HL-60 > 100 µM | IGROV-1 > 100 µM | KM12 > 100 µM | Malme-3M > 100 µM | COLO 205 > 100 µM

C[S+](C)([O-])=Nn1c(=O)n2n(c1=O)[C@H]1CC[C@@H]2C1
inactive: SK-MEL-5 > 100 µM | CAKI-1 > 100 µM | NCI-H460 > 100 µM | UACC-62 > 100 µM | UACC-257 > 100 µM | OVCAR-5 > 100 µM | SK-MEL-2 > 100 µM | RXF 393 > 100 µM | SK-OV-3 > 100 µM | SK-MEL-28 > 100 µM | NCI-H522 > 100 µM | HL-60 46.3 µM | IGROV-1 > 100 µM | KM12 > 100 µM | SF-268 > 100 µM | Malme-3M > 100 µM | SW-620 > 100 µM | COLO 205 > 100 µM

CC(C)c1ccccc1SCc1cc(=O)cc(CSc2ccccc2C(C)C)o1
inactive: SK-MEL-5 24.1 µM | CAKI-1 18.5 µM | NCI-H460 21.1 µM | UACC-62 16.7 µM | UACC-257 20.5 µM | OVCAR-4 19.5 µM | OVCAR-5 15.3 µM | SK-MEL-2 17.4 µM | RXF 393 31 µM | SK-OV-3 22.1 µM | SK-MEL-28 32.7 µM | HL-60 22.9 µM | IGROV-1 14.5 µM | KM12 15.7 µM | SF-268 16.8 µM | Malme-3M 25.2 µM | SW-620 34.2 µM | COLO 205 37.2 µM

O=NN(CCCl)C(=O)N[C@H]1CCCC[C@@H]1Cl
inactive: SK-MEL-5 > 100 µM | CAKI-1 > 100 µM | NCI-H460 29.4 µM | OVCAR-4 > 100 µM | SK-MEL-2 > 100 µM | SN12C 88.1 µM | RXF 393 > 100 µM | SK-OV-3 > 100 µM | SK-MEL-28 > 100 µM | NCI-H522 > 100 µM | HL-60 19.6 µM | IGROV-1 > 100 µM | KM12 > 100 µM | SF-268 16.7 µM | Malme-3M > 100 µM | SW-620 > 100 µM | COLO 205 > 100 µM
